Experimental findings from ChEMBL document CHEMBL4385594, “4(3H)-Quinazolinone derivatives: Promising antibacterial drug leads” (Eur J Med Chem, 2019) are described below.

The test system of the assay is Helicobacter pylori. In words: Antibacterial activity against Helicobacter pylori assessed as reduction in bacterial cell growth by agar dilution method. Format: functional.

Values after ≈ are worked out from the molar mass of the structure shown.

For the molecule `Nc1nc(-n2c(-c3ccc([N+](=O)[O-])cc3)nc3ccccc3c2=O)nnc1-c1cccc(Cl)c1Cl`, the MIC is 25 µg/mL (≈ 49.4 µM).

What is called MIC is the lowest concentration found to suppress growth.
